From US20150119394A1, “Insulin-Like Growth Factor-1 Receptor Inhibitors” (Merck Sharp & Dohme Corp., priority 2012, published 2015)

target: T1, intracellular kinase domain of human IGF-1R (GST fusion protein) (Homo sapiens, UniProt P08069); test: In vitro IGF-1R kinase assay (HTRF); assay type: biochemical; details: ATP 20 μM, IGFRK 0.25 nM
T1 construct: IGFRK and IRK enzyme used for the assay was intracellular kinase domain of human IGF-1R; GST; made in house
Protocol: The in vitro kinase assays using IGF-1R and IR kinase GST fusion proteins were conducted using a homogeneous time-resolved fluorescence (HTRF) format. Kinase reactions were carried out in a 384-well plate format in a final volume of 20 μL. The standard enzyme reaction buffer consisted of 50 mM Tris HCL (pH: 7.4), 1 mM EGTA, 10 mM MgCl2, 2 mM DTT, 0.01% Tween-20, IGF-1R/IR kinase enzyme, poly GT peptide substrate (Perkin Elmer [Ulight Glu-Tyr (4:1)]n) and ATP [concentration equivalent to Kmapp] […] Briefly, 2.5 μL enzyme and 2.5 μL inhibitor was preincubated for 10 minutes at 23° C. followed by the addition of 2.5 μL of poly GT substrate (final concentration of 50 nM). Reaction was initiated with the addition of 2.5 μL of ATP (final concentration of 20 μM for IGF-1R assay and 10 μM for IR assay). After 1 hour incubation at 23° C., the kinase reaction was stopped with the addition of 5 μL EDTA (final concentration of 10 mM in 20 μL). Europium cryptate—labeled antiphosphotyrosine antibody PY20 (5 μL) was added (final concentration of 2 nM) and the mixture was allowed to equilibrate for 1 hour at 23° C. followed by reading the plate in an Envision plate reader.
The intensity of light emission at 665 nm was directly proportional to the level of substrate phosphorylation. The IC50 values for inhibitors were determined by a four-parameter sigmoidal curve fit (Sigma plot or Graph pad).
IGFRK and IRK enzyme used for the assay was intracellular kinase domain of human IGF-1R and human IR cloned and expressed as GST fusion proteins using the baculovirus expression system and purified using glutathione—Sepharose column.

T1 sequence (P08069 999-1274 limits assumed): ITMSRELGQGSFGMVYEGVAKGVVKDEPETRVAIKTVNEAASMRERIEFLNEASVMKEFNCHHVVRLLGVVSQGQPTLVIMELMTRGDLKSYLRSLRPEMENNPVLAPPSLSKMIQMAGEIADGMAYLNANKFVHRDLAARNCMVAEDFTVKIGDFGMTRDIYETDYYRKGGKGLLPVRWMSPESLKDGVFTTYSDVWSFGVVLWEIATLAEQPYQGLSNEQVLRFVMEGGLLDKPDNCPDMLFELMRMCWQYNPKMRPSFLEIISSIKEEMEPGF

IC50 [µM]	Compound
> 1	NC(=O)c1[nH]c2ccc(Cl)cc2c1S(=O)(=O)N1CCO[C@H](COc2ccccc2-c2cccnc2F)C1 [Compound 57, (S)-5-chloro-3-((2-((2-(2-fluoropyridin-3-yl)phenoxy)methyl)morpholino)sulfonyl)-1H-indole-2-carboxamide]
0.136	NC(=O)c1[nH]c2ccc(Cl)cc2c1S(=O)(=O)N1CCO[C@H](COc2cc3ccccc3nn2)C1 [Compound 89, (S)-5-chloro-3-((2-((cinnolin-3-yloxy)methyl)morpholino)sulfonyl)-1H-indole-2-carboxamide]
> 1	NC(=O)c1[nH]c2ccc(Cl)cc2c1S(=O)(=O)N1CCO[C@H](COc2ccc(-c3ccccc3)cn2)C1 [Compound 81, (S)-5-chloro-3-((2-(((5-phenylpyridin-2-yl)oxy)methyl)morpholino)sulfonyl)-1H-indole-2-carboxamide]
> 0.1	NC(=O)c1[nH]c2ccc(Cl)cc2c1S(=O)(=O)N1CCO[C@H](COc2cccc3cccnc23)C1 [Compound 90, (S)-5-chloro-3-((2-((quinolin-8-yloxy)methyl)morpholino)sulfonyl)-1H-indole-2-carboxamide]
> 1	NC(=O)c1[nH]c2ccc(Cl)cc2c1S(=O)(=O)N1CCO[C@H](COc2ccccc2-c2ccccc2)C1 [Compound 54, (S)-3-((2-(([1,1′-biphenyl]-2-yloxy)methyl)morpholino)sulfonyl)-5-chloro-1H-indole-2-carboxamide]
> 1	NC(=O)c1[nH]c2ccc(Cl)cc2c1S(=O)(=O)N1CCO[C@H](COc2ccccc2-c2cccc(F)c2)C1 [Compound 64, (S)-5-chloro-3-((2-(((3′-fluoro-[1,1′-biphenyl]-2-yl)oxy)methyl)morpholino)sulfonyl)-1H-indole-2-carboxamide]
> 1	NC(=O)c1[nH]c2ccc(Cl)cc2c1S(=O)(=O)N1CCO[C@H](COc2ccccc2-c2ccc(F)nc2)C1 [Compound 59, (S)-5-chloro-3-((2-((2-(6-fluoropyridin-3-yl)phenoxy)methyl)morpholino)sulfonyl)-1H-indole-2-carboxamide]
> 1	NC(=O)c1[nH]c2ccc(Cl)cc2c1S(=O)(=O)N1CCO[C@H](COc2ccccc2-c2cccnc2)C1 [Compound 55, (S)-5-chloro-3-((2-((2-(pyridin-3-yl)phenoxy)methyl)morpholino)sulfonyl)-1H-indole-2-carboxamide]
0.0471	NC(=O)c1[nH]c2ccc(Cl)cc2c1S(=O)(=O)N1CCO[C@H](COc2cccc(-c3ccccc3)n2)C1 [Compound 80, (S)-5-chloro-3-((2-(((6-phenylpyridin-2-yl)oxy)methyl)morpholino)sulfonyl)-1H-indole-2-carboxamide]
0.0097	NC(=O)c1[nH]c2ccc(Cl)cc2c1S(=O)(=O)N1CCO[C@H](COc2cccc(-c3ccnc(Cl)c3)c2)C1 [Compound 85, (S)-5-chloro-3-((2-((3-(2-chloropyridin-4-yl)phenoxy)methyl)morpholino)sulfonyl)-1H-indole-2-carboxamide]

Second part, the compound before the results:

Compound	IC50 [µM]
NC(=O)c1[nH]c2ccc(Cl)cc2c1S(=O)(=O)N1CCO[C@H](COc2ccc(F)c(-c3cncnc3)c2)C1 [Compound 27, (S)-5-chloro-3-((2-((4-fluoro-3-(pyrimidin-5-yl)phenoxy)methyl)morpholino)sulfonyl)-1H-indole-2-carboxamide]	0.0047
NC(=O)c1[nH]c2ccc(Cl)cc2c1S(=O)(=O)N1CCO[C@H](COc2cccc(-c3ccncc3)c2)C1 [Compound 2, (S)-5-chloro-3-((2-((3-(pyridin-4-yl)phenoxy)methyl)morpholino)sulfonyl)-1H-indole-2-carboxamide]	0.0085
COc1ccc(-c2cc(OC[C@@H]3CN(S(=O)(=O)c4c(C(N)=O)[nH]c5ccc(Cl)cc45)CCO3)ccc2C)cn1 [Compound 25, (S)-5-chloro-3-((2-((3-(6-methoxypyridin-3-yl)-4-methylphenoxy)methyl)morpholino)sulfonyl)-1H-indole-2-carboxamide]	0.0533
Cc1ccccc1-c1ccc(OC[C@@H]2CN(S(=O)(=O)c3c(C(N)=O)[nH]c4ccc(Cl)cc34)CCO2)cc1 [Compound 41, (S)-5-chloro-3-((2-(((2′-methyl-[1,1′-biphenyl]-4-yl)oxy)methyl)morpholino)sulfonyl)-1H-indole-2-carboxamide]	0.184
COc1ccccc1-c1ccc(OC[C@@H]2CN(S(=O)(=O)c3c(C(N)=O)[nH]c4ccc(Cl)cc34)CCO2)cc1 [Compound 43, (S)-5-chloro-3-((2-(((2′-methoxy-[1,1′-biphenyl]-4-yl)oxy)methyl)morpholino)sulfonyl)-1H-indole-2-carboxamide]	> 0.1
COc1ccc(-c2cc(OC[C@@H]3CN(S(=O)(=O)c4c(C(N)=O)[nH]c5ccc(Cl)cc45)CCO3)ccc2F)cn1 [Compound 29, (S)-5-chloro-3-((2-((4-fluoro-3-(6-methoxypyridin-3-yl)phenoxy)methyl)morpholino)sulfonyl)-1H-indole-2-carboxamide]	0.0432
Cc1cc(OC[C@@H]2CN(S(=O)(=O)c3c(C(N)=O)[nH]c4ccc(Cl)cc34)CCO2)ccc1-c1ccncc1 [Compound 67, (S)-5-chloro-3-((2-((3-methyl-4-(pyridin-4-yl)phenoxy)methyl)morpholino)sulfonyl)-1H-indole-2-carboxamide]	0.0043
COc1ccccc1-c1cc(OC[C@@H]2CN(S(=O)(=O)c3c(C(N)=O)[nH]c4ccc(Cl)cc34)CCO2)ccc1C [Compound 23, (S)-5-chloro-3-((2-(((2′-methoxy-6-methyl-[1,1′-biphenyl]-3-yl)oxy)methyl)morpholino)sulfonyl)-1H-indole-2-carboxamide]	0.132
Cc1cccc(-c2cccc(OC[C@@H]3CN(S(=O)(=O)c4c(C(N)=O)[nH]c5ccc(Cl)cc45)CCO3)c2)c1 [Compound 14, (S)-5-chloro-3-((2-(((3′-methyl-[1,1′-biphenyl]-3-yl)oxy)methyl)morpholino)sulfonyl)-1H-indole-2-carboxamide]	> 0.1
NC(=O)c1[nH]c2ccc(Cl)cc2c1S(=O)(=O)N1CCO[C@H](COc2ccc(-c3ccccc3Cl)cc2)C1 [Compound 83, (S)-5-chloro-3-((2-(((2′-chloro-[1,1′-biphenyl]-4-yl)oxy)methyl)morpholino)sulfonyl)-1H-indole-2-carboxamide]	0.097
CN(C)c1ccc(-c2cccc(OC[C@@H]3CN(S(=O)(=O)c4c(C(N)=O)[nH]c5ccc(Cl)cc45)CCO3)c2)cn1 [Compound 5, (S)-5-chloro-3-((2-((3-(6-(dimethylamino)pyridin-3-yl)phenoxy)methyl)morpholino)sulfonyl)-1H-indole-2-carboxamide]	0.0304
COc1cc(-c2ccc(OC[C@@H]3CN(S(=O)(=O)c4c(C(N)=O)[nH]c5ccc(Cl)cc45)CCO3)cc2)ccn1 [Compound 47, (S)-5-chloro-3-((2-((4-(2-methoxypyridin-4-yl)phenoxy)methyl)morpholino)sulfonyl)-1H-indole-2-carboxamide]	< 0.1
NC(=O)c1[nH]c2ccc(Cl)cc2c1S(=O)(=O)N1CCO[C@H](COc2cncc(-c3ccccc3F)c2)C1 [Compound 78]	> 1
Cc1cc(OC[C@@H]2CN(S(=O)(=O)c3c(C(N)=O)[nH]c4ccc(Cl)cc34)CCO2)ccc1-c1ccc(Cl)nc1 [Compound 88, (S)-5-chloro-3-((2-((4-(6-chloropyridin-3-yl)-3-methylphenoxy)methyl)morpholino)sulfonyl)-1H-indole-2-carboxamide]	0.067
COc1ncccc1-c1ccc(OC[C@@H]2CN(S(=O)(=O)c3c(C(N)=O)[nH]c4ccc(Cl)cc34)CCO2)cc1 [Compound 44, (S)-5-chloro-3-((2-((4-(2-methoxypyridin-3-yl)phenoxy)methyl)morpholino)sulfonyl)-1H-indole-2-carboxamide]	0.0464
Cc1cc(-c2cc(OC[C@@H]3CN(S(=O)(=O)c4c(C(N)=O)[nH]c5ccc(Cl)cc45)CCO3)ccc2F)ccn1 [Compound 30, (S)-5-chloro-3-((2-((4-fluoro-3-(2-methylpyridin-4-yl)phenoxy)methyl)morpholino)sulfonyl)-1H-indole-2-carboxamide]	< 0.1
COc1ncc(-c2cccc(OC[C@@H]3CN(S(=O)(=O)c4c(C(N)=O)[nH]c5ccc(Cl)cc45)CCO3)c2)cn1 [Compound 16, (S)-5-chloro-3-((2-((3-(2-methoxypyrimidin-5-yl)phenoxy)methyl)morpholino)sulfonyl)-1H-indole-2-carboxamide]	0.002
NC(=O)c1[nH]c2ccc(Cl)cc2c1S(=O)(=O)N1CCO[C@H](COc2cccc(-c3ccc(F)nc3)c2)C1 [Compound 8, (S)-5-chloro-3-((2-((3-(6-fluoropyridin-3-yl)phenoxy)methyl)morpholino)sulfonyl)-1H-indole-2-carboxamide]	0.0155
NC(=O)c1[nH]c2ccc(Cl)cc2c1S(=O)(=O)N1CCO[C@H](COc2ccc(-c3ccccc3OC(F)(F)F)cc2)C1 [Compound 40, (S)-5-chloro-3-((2-(((2′-(trifluoromethoxy)-[1,1′-biphenyl]-4-yl)oxy)methyl)morpholino)sulfonyl)-1H-indole-2-carboxamide]	0.361
